Assay results reported in ChEMBL document CHEMBL3112480, “γ-Alkylidene-γ-lactones and isobutylpyrrol-2(5H)-ones analogues to rubrolides as inhibitors of biofilm formation by gram-positive and gram-negative bacteria” (Bioorg Med Chem Lett, 2014).

Tests used:
Streptococcus mutans [1] = test: Antibacterial activity against Streptococcus mutans ATCC 25175 assessed as effect on planktonic growth at 21.9 ug/ml after 20 hrs relative to control; assay type: functional
Streptococcus mutans [2] = test: Antibacterial activity against Streptococcus mutans ATCC 25175 assessed as effect on planktonic growth at 43.8 ug/ml after 20 hrs relative to control; assay type: functional
Streptococcus mutans [3] = test: Antibacterial activity against Streptococcus mutans ATCC 25175 assessed as effect on planktonic growth at 87.5 ug/ml after 20 hrs relative to control; assay type: functional
Staphylococcus aureus [4] = test: Antibacterial activity against Staphylococcus aureus ATCC 25923 assessed as effect on planktonic growth at 0.17 ug/ml after 20 hrs relative to control; assay type: functional
Staphylococcus aureus [5] = test: Antibacterial activity against Staphylococcus aureus ATCC 25923 assessed as effect on planktonic growth at 0.34 ug/ml after 20 hrs relative to control; assay type: functional
Staphylococcus aureus [6] = test: Antibacterial activity against Staphylococcus aureus ATCC 25923 assessed as effect on planktonic growth at 0.68 ug/ml after 20 hrs relative to control; assay type: functional
Staphylococcus aureus [7] = test: Antibacterial activity against Staphylococcus aureus ATCC 25923 assessed as effect on planktonic growth at 1.37 ug/ml after 20 hrs relative to control; assay type: functional
Staphylococcus aureus [8] = test: Antibacterial activity against Staphylococcus aureus ATCC 25923 assessed as effect on planktonic growth at 5.5 ug/ml after 20 hrs relative to control; assay type: functional
Staphylococcus aureus [9] = test: Antibacterial activity against Staphylococcus aureus ATCC 25923 assessed as effect on planktonic growth at 2.73 ug/ml after 20 hrs relative to control; assay type: functional
Staphylococcus aureus [10] = test: Antibacterial activity against Staphylococcus aureus ATCC 25923 assessed as effect on planktonic growth at 10.9 ug/ml after 20 hrs relative to control; assay type: functional
Staphylococcus aureus [11] = test: Antibacterial activity against Staphylococcus aureus ATCC 25923 assessed as effect on planktonic growth at 21.9 ug/ml after 20 hrs relative to control; assay type: functional
Staphylococcus aureus [12] = test: Antibacterial activity against Staphylococcus aureus ATCC 25923 assessed as effect on planktonic growth at 43.8 ug/ml after 20 hrs relative to control; assay type: functional
Staphylococcus aureus [13] = test: Antibacterial activity against Staphylococcus aureus ATCC 25923 assessed as effect on planktonic growth at 87.5 ug/ml after 20 hrs relative to control; assay type: functional
Pseudomonas aeruginosa [14] = test: Antibacterial activity against Pseudomonas aeruginosa ATCC 27853 assessed as effect on planktonic growth at 0.17 ug/ml after 20 hrs relative to control; assay type: functional
Pseudomonas aeruginosa [15] = test: Antibacterial activity against Pseudomonas aeruginosa ATCC 27853 assessed as effect on planktonic growth at 0.34 ug/ml after 20 hrs relative to control; assay type: functional
Pseudomonas aeruginosa [16] = test: Antibacterial activity against Pseudomonas aeruginosa ATCC 27853 assessed as effect on planktonic growth at 0.68 ug/ml after 20 hrs relative to control; assay type: functional
Pseudomonas aeruginosa [17] = test: Antibacterial activity against Pseudomonas aeruginosa ATCC 27853 assessed as effect on planktonic growth at 1.37 ug/ml after 20 hrs relative to control; assay type: functional
Pseudomonas aeruginosa [18] = test: Antibacterial activity against Pseudomonas aeruginosa ATCC 27853 assessed as effect on planktonic growth at 2.73 ug/ml after 20 hrs relative to control; assay type: functional
Pseudomonas aeruginosa [19] = test: Antibacterial activity against Pseudomonas aeruginosa ATCC 27853 assessed as effect on planktonic growth at 5.5 ug/ml after 20 hrs relative to control; assay type: functional
Pseudomonas aeruginosa [20] = test: Antibacterial activity against Pseudomonas aeruginosa ATCC 27853 assessed as effect on planktonic growth at 10.9 ug/ml after 20 hrs relative to control; assay type: functional
Pseudomonas aeruginosa [21] = test: Antibacterial activity against Pseudomonas aeruginosa ATCC 27853 assessed as effect on planktonic growth at 21.9 ug/ml after 20 hrs relative to control; assay type: functional
Pseudomonas aeruginosa [22] = test: Antibacterial activity against Pseudomonas aeruginosa ATCC 27853 assessed as effect on planktonic growth at 43.8 ug/ml after 20 hrs relative to control; assay type: functional
Pseudomonas aeruginosa [23] = test: Antibacterial activity against Pseudomonas aeruginosa ATCC 27853 assessed as effect on planktonic growth at 87.5 ug/ml after 20 hrs relative to control; assay type: functional
[24] = tested on: Staphylococcus epidermidis; test: Antibacterial activity against Staphylococcus epidermidis ATCC 35547 assessed as effect on planktonic growth at 0.17 ug/ml after 20 hrs relative to control; assay type: functional
[25] = tested on: Staphylococcus epidermidis; test: Antibacterial activity against Staphylococcus epidermidis ATCC 35547 assessed as effect on planktonic growth at 0.34 ug/ml after 20 hrs relative to control; assay type: functional
[26] = tested on: Staphylococcus epidermidis; test: Antibacterial activity against Staphylococcus epidermidis ATCC 35547 assessed as effect on planktonic growth at 0.68 ug/ml after 20 hrs relative to control; assay type: functional
[27] = tested on: Staphylococcus epidermidis; test: Antibacterial activity against Staphylococcus epidermidis ATCC 35547 assessed as effect on planktonic growth at 1.37 ug/ml after 20 hrs relative to control; assay type: functional
[28] = tested on: Staphylococcus epidermidis; test: Antibacterial activity against Staphylococcus epidermidis ATCC 35547 assessed as effect on planktonic growth at 2.73 ug/ml after 20 hrs relative to control; assay type: functional
[29] = tested on: Staphylococcus epidermidis; test: Antibacterial activity against Staphylococcus epidermidis ATCC 35547 assessed as effect on planktonic growth at 5.5 ug/ml after 20 hrs relative to control; assay type: functional
[30] = tested on: Staphylococcus epidermidis; test: Antibacterial activity against Staphylococcus epidermidis ATCC 35547 assessed as effect on planktonic growth at 10.9 ug/ml after 20 hrs relative to control; assay type: functional
[31] = tested on: Staphylococcus epidermidis; test: Antibacterial activity against Staphylococcus epidermidis ATCC 35547 assessed as effect on planktonic growth at 21.9 ug/ml after 20 hrs relative to control; assay type: functional
[32] = tested on: Staphylococcus epidermidis; test: Antibacterial activity against Staphylococcus epidermidis ATCC 35547 assessed as effect on planktonic growth at 43.8 ug/ml after 20 hrs relative to control; assay type: functional
[33] = tested on: Staphylococcus epidermidis; test: Antibacterial activity against Staphylococcus epidermidis ATCC 35547 assessed as effect on planktonic growth at 87.5 ug/ml after 20 hrs relative to control; assay type: functional
Streptococcus mutans [34] = test: Induction of biofilm formation in Streptococcus mutans ATCC 25175 at 44 ug/ml after 20 hrs by crystal-violet staining method relative to control
Pseudomonas aeruginosa [35] = test: Antibacterial activity against Pseudomonas aeruginosa ATCC 27853 assessed as inhibition of biofilm formation after 20 hrs by crystal-violet staining method; assay type: functional, organism-based
[36] = tested on: Staphylococcus epidermidis; test: Antibacterial activity against Staphylococcus epidermidis ATCC 35547 assessed as inhibition of biofilm formation after 20 hrs by crystal-violet staining method; assay type: functional, organism-based; settings: for IC50: ATCC 35547, 20 h
Streptococcus mutans [37] = test: Antibacterial activity against Streptococcus mutans ATCC 25175 assessed as effect on planktonic growth at 0.17 ug/ml after 20 hrs relative to control; assay type: functional
Streptococcus mutans [38] = test: Antibacterial activity against Streptococcus mutans ATCC 25175 assessed as effect on planktonic growth at 0.34 ug/ml after 20 hrs relative to control; assay type: functional
Streptococcus mutans [39] = test: Antibacterial activity against Streptococcus mutans ATCC 25175 assessed as effect on planktonic growth at 0.68 ug/ml after 20 hrs relative to control; assay type: functional
Streptococcus mutans [40] = test: Antibacterial activity against Streptococcus mutans ATCC 25175 assessed as effect on planktonic growth at 1.37 ug/ml after 20 hrs relative to control; assay type: functional
Streptococcus mutans [41] = test: Antibacterial activity against Streptococcus mutans ATCC 25175 assessed as effect on planktonic growth at 2.73 ug/ml after 20 hrs relative to control; assay type: functional
Streptococcus mutans [42] = test: Antibacterial activity against Streptococcus mutans ATCC 25175 assessed as effect on planktonic growth at 5.5 ug/ml after 20 hrs relative to control; assay type: functional
Streptococcus mutans [43] = test: Antibacterial activity against Streptococcus mutans ATCC 25175 assessed as effect on planktonic growth at 10.9 ug/ml after 20 hrs relative to control; assay type: functional
Pseudomonas aeruginosa [44] = test: Induction of biofilm formation in Pseudomonas aeruginosa ATCC 27853 at 87.5 ug/ml after 20 hrs by crystal-violet staining method relative to control; assay type: organism-based

`COc1ccc(C)cc1C1=C(Br)C(=O)O/C1=C\c1cccc(Cl)c1` gave an Activity (Streptococcus mutans [1]) of 12.1%, an Activity (Streptococcus mutans [2]) of 19.8% and an Activity (Streptococcus mutans [3]) of 34.9%. The Activity (Staphylococcus aureus [4]) was 23%, the Activity (Staphylococcus aureus [5]) was 47.5% and the Activity (Staphylococcus aureus [6]) was 52.2%. It also gave an Activity (Staphylococcus aureus [7]) of 50.6%, an Activity (Staphylococcus aureus [8]) of 35.4% and an Activity (Staphylococcus aureus [9]) of 46.8%. For the same compound, the Activity (Staphylococcus aureus [10]) was 34.9%, the Activity (Staphylococcus aureus [11]) was 39.3% and the Activity (Staphylococcus aureus [12]) was 66.1%. For the same compound, the Activity (Staphylococcus aureus [13]) was 131%, the Activity (Pseudomonas aeruginosa [14]) was -3% and the Activity (Pseudomonas aeruginosa [15]) was -4.8%. The Activity (Pseudomonas aeruginosa [16]) was -0.1%, the Activity (Pseudomonas aeruginosa [17]) was 0.8% and the Activity (Pseudomonas aeruginosa [18]) was -4.8%. For the same compound, the Activity (Pseudomonas aeruginosa [19]) was -8.9%, the Activity (Pseudomonas aeruginosa [20]) was -14% and the Activity (Pseudomonas aeruginosa [21]) was -12.1%. For the same compound, the Activity (Pseudomonas aeruginosa [22]) was -8.5%, the Activity (Pseudomonas aeruginosa [23]) was 7.8% and the Activity [24] was 13.2%. For the same compound, the Activity [25] was 10.3%, the Activity [26] was 11.9% and the Activity [27] was 4.9%. It also gave an Activity [28] of -4%, an Activity [29] of 4% and an Activity [30] of -3.1%. It also gave an Activity [31] of 8.9%, an Activity [32] of 12.7% and an Activity [33] of 33.8%. For the same compound, the Activity (Streptococcus mutans [34]) was “Toxic”, the inhibition (Pseudomonas aeruginosa [35]) was “Dose-dependent effect” and the IC50 (Pseudomonas aeruginosa [35]; ATCC 27853, 20 h) was over 87.5 µg/mL. For the same compound, the inhibition [36] was “Dose-dependent effect”, the IC50 [36] was over 87.5 µg/mL and the Activity (Streptococcus mutans [37]) was 10.2%. The Activity (Streptococcus mutans [38]) was 9.9%, the Activity (Streptococcus mutans [39]) was -5.8% and the Activity (Streptococcus mutans [40]) was 0%. For the same compound, the Activity (Streptococcus mutans [41]) was 8.2%, the Activity (Streptococcus mutans [42]) was 5.2% and the Activity (Streptococcus mutans [43]) was -2.7%.
In the case of `COc1cccc(/C=C2\C(c3cc(Cl)ccc3OC)=C(Br)C(=O)N2CC(C)C)c1`, the Activity (Streptococcus mutans [1]) is reported as 14.8%, the Activity (Streptococcus mutans [2]) is reported as 44.1% and the Activity (Streptococcus mutans [3]) is reported as 76.4%. It also gave an Activity (Staphylococcus aureus [4]) of 45.5%, an Activity (Staphylococcus aureus [5]) of 49.8% and an Activity (Staphylococcus aureus [6]) of 39.1%. For the same compound, the Activity (Staphylococcus aureus [7]) was 36.2%, the Activity (Staphylococcus aureus [8]) was 92.3% and the Activity (Staphylococcus aureus [9]) was 34%. It also gave an Activity (Staphylococcus aureus [10]) of 11.5%, an Activity (Staphylococcus aureus [11]) of 14% and an Activity (Staphylococcus aureus [12]) of 20.4%. It also gave an Activity (Staphylococcus aureus [13]) of 9.8%, an Activity (Pseudomonas aeruginosa [14]) of 18% and an Activity (Pseudomonas aeruginosa [15]) of 2.9%. For the same compound, the Activity (Pseudomonas aeruginosa [16]) was 0.3%, the Activity (Pseudomonas aeruginosa [17]) was -6.6% and the Activity (Pseudomonas aeruginosa [18]) was -5.3%. The Activity (Pseudomonas aeruginosa [19]) was 2.8%, the Activity (Pseudomonas aeruginosa [20]) was 8.8% and the Activity (Pseudomonas aeruginosa [21]) was 19.6%. For the same compound, the Activity (Pseudomonas aeruginosa [22]) was 24.2%, the Activity (Pseudomonas aeruginosa [23]) was 9.6% and the Activity [24] was 0.7%. For the same compound, the Activity [25] was 0.4%, the Activity [26] was 0.3% and the Activity [27] was 4.2%. For the same compound, the Activity [28] was 1.5%, the Activity [29] was 4.1% and the Activity [30] was 12.7%. The Activity [31] was 25.4%, the Activity [32] was 44.9% and the Activity [33] was 45.3%. For the same compound, the Activity (Pseudomonas aeruginosa [44]) was 84.6%, the inhibition (Pseudomonas aeruginosa [35]) was “Dose-dependent effect” and the inhibition [36] was “Dose-dependent effect”. The IC50 [36] was over 87.5 µg/mL, the Activity (Streptococcus mutans [37]) was 2.2% and the Activity (Streptococcus mutans [38]) was 6.1%. It also gave an Activity (Streptococcus mutans [39]) of -1.7%, an Activity (Streptococcus mutans [40]) of -3.9% and an Activity (Streptococcus mutans [41]) of 3.5%. The Activity (Streptococcus mutans [42]) was 8.3% and the Activity (Streptococcus mutans [43]) was 17%.
